Source: patent US8785423B2, “Compositions and methods of inducing endoplasmic reticulum stress response for the treatment of cell proliferative diseases” (University of Maryland, Baltimore, priority 2008, dated 2014)

Assays:
Assay type in all cases: cell-based
[1] = tested on: DU-145 cells; experiment: MTT cell viability assay, 96 hr exposure; conditions: DU-145, 96 hrs; for GI50: Homo sapiens
Experimental: (§1) All cell lines were obtained from American. Type Culture Collection (Rockville, Md.) and maintained in RPM 1640 media supplemented with 10% fetal bovine serum and 5% penicillin streptomycin solution. Cells were grown as a monolayer in a humidified incubator (5% CO2) at 37° C. To determine the effect of the various compounds on cell proliferation, cells were plated (2500 cells/well) in 96-well cell culture dishes (Corning, Inc. Corning, N.Y.). After a 24 hr attachment period, media was replaced with fresh media containing compounds (0.01 μM-100 μM) or vehicle (95% ethanol). The cells were then allowed to grow in the presence of the drugs for 96 hrs. After 96 hrs, relative cell viability was assessed using the MIT reagent (3-(4,5-dimethylthiazol-2-yl)-2,5-diphenyltetrazolium bromide) as is well-known in the art. […] Results were plotted using the average of each dose over all three experiments and fitted with a best-fit sigmoidal dose response variable slope curve using GraphPad Prism 4.01 (GraphPad Software, Inc.). For combination of VN/124-1 and Thapsigargin, cells were treated for 72 hrs and viability was assessed as described for single agents. Combination index (CI) was calculated as is well known in the art, and CI values less than 1 are considered synergistic.

[2] = tested on: LNCaP cells; experiment: MTT cell viability assay, 96 hr exposure; conditions: for GI50: Homo sapiens
Experimental: as §1

[3] = tested on: PC-3 cells; experiment: MTT cell viability assay, 96 hr exposure; conditions: PC-3, 96 hrs; for GI50: Homo sapiens
Experimental: as §1

[4] = tested on: PC-3 cells; experiment: Microarray global gene expression (GeneChip Human Genome Focus Array, DAVID ontologies); conditions: 20 μM, 24 hrs
Experimental: To perform the microarray experiments, PC-3 cells were treated with (95% ethanol) or 20 μM of VN/124-1. After 24 hr exposure to the agent, cells were pelleted and lysed using Qiagen RLT (Qiagen Inc.; Valencia, Calif.) buffer containing 1% β-mercaptoethanol. Total RNA was isolated using the Qiagen RNeasy-Mini Kit following manufacturer's protocol. Quantity and purity were assessed by absorption at 260 nm and 280 nm. RNA integrity was assessed using an Agilent Bioanalyzer (Agilent Technologies; Santa Clara, Calif.). Experiments were carried out in duplicate, with triplicate samples (dosed independently on 3 different days) from each experiment pooled for analysis on a single chip.
Samples were hybridized to a GeneChip® Human Genome Focus Array (Affymetrix Inc., U.S.A.) and analyzed using an Affymetrix Genechip Scanner 3000 according to manufacturer's protocol. Gene ontologies were identified using the online Database for Annotation, Visualization, and integrated Discovery (DAVID) provided by the National Institute of Allergy and Infectious Diseases and the National Institute of Health. […] Stringent criteria of a minimum EASE/P-Value threshold of 0.001 and a gene count threshold of 5 were used to identify altered gene ontologies.

[5] = tested on: PC-3 cells; experiment: Real-time PCR (qRT-PCR) of stress response and cell cycle related genes; conditions: 20 μM, 24 hr
Experimental: Cells were treated, lysed and RNA collected and quantified using the same method outlined above. Cells were dosed independently on 3 separate days (n=3). 1 μg of total RNA was converted to cDNA using ReactionReady™ First Strand cDNA Synthesis kit (SuperArray Bioscience Corp.; Frederick, Md.) following manufacturer's protocol. 50 ng of template cDNA was then used in subsequent real-time PCR (qRT-PCR) reactions. Template was combined with target gene specific or β-actin control RT^2 PCR Primer Sets, RT^2 Real-Time™ SYBR Green/Rox Master Mix (SuperArray Bioscience Corp.), and ddH2O for a final reaction volume of 25 μL and run on a 7900HT Fast Real-Time PCR system (Applied Biosystems; Foster City, Calif.) following manufacturer's protocol. Fold changes were calculated using the ΔΔCt method as recommended by the manufacture's protocol.

[6] = tested on: eIF2α, p-eIF2α, cyclin D1, gp78/BiP, CHOP; experiment: Western blot of ERSR related proteins; conditions: 20 μM
Experimental: Cells were treated with VN/124-1, thapsigargin or vehicle for 6 and 24 hrs. Protein was isolated, subjected to SDS-PAGE, transferred and imaged as is known in the art. Primary antibodies against eIF2α, p-eIF2α, cyclin D1, gp78/BiP, and β-actin were purchased from Cell Signaling (Danvers, Mass.), Anti-CHOP antibody was purchased from Sigma Aldrich (St Louis, Mo.). Quantitation of relative protein expression was determined via densitometry using the software ImageQuant 5.0 (Molecular Dynamics) with each protein normalized to its respective loading control. Results represent the average of at least 3 independent experiments, with representative blots shown.

[7] = tested on: PC-3 cells; experiment: Cell cycle analysis by flow cytometry in synchronized cells; conditions: 20 μM
Experimental: Cells were synchronized in the G1/G0 phase by maintaining them in 0.2% FBS-containing media for 96 hrs. After starvation, media was replaced with normal growth media (10% FBS) containing vehicle (95% ethanol) or 20 μM VN/124-1 for 12, 18, and 24 hrs. At each timepoint, cells were pelleted and fixed in 70% ethanol at −20° C. for at least 24 hrs. Fixed cells were then incubated with 1 mL propidium iodide (PI) staining buffer (1 mg/ml PI, 0.1% Triton-X, and 10 μg/ml RNase A dissolved in PBS) for 1 hr at room temperature and DNA content was measured by flow cytometry analysis using a FACSort flow cytometer (Becton Dickinson, San Jose, Calif.). 15,000 events were analyzed for each sample and ModFit LT version 3.1 (Verity Software House Ind., ME) was used to analyze cell cycle distribution.

[8] = tested on: PC-3 cells; experiment: Ca2+ transients in individual cells, Fluo-3AM; conditions: 20 μM; for transient rise in [Ca2+]i, mean peak ΔF/F0: Fluo-3AM
Experimental: (§2) PC-3 Cells were loaded with either fura-2 or fluo-3 indicator by incubation with 2 μM fura-2/AM or 2 μM fluo-3/AM in RPMI 1640 medium containing 10% fetal bovine serum for >60 min at room temperature. During experiments, the coverslips were mounted in a flow chamber and superfused with oxygenated Locke solution containing (in mM): 10 glucose, 136 NaCl, 5.6 KCl, 1.2 NaH2PO4 14.3 NaHCO3, 1.2 MgCl2, and 2.2 CaCl2, pH 7.4, at room temperature (22-24° C.).
For measurement of [Ca^2+]i in individual cells, PC-3 cells were incubated on coverslips with 20 μM VN/124-1 or vehicle for 24 hrs. Cells loaded with fura-2 were placed in a perfusion chamber mounted on an inverted microscope (TE200; Nikon, Tokyo, Japan) equipped with a UV-transmitting objective (SuperFluor, 40×, N.A. 1.4, Nikon). Pura-2 was alternately excited by 340 nm and 380 nm light from monochrometers (Deltascan Illumination System, Photonic Technology International (PTI), South Brunswick, N.J.) and fura-2 emission was passed through a 515 nm longpass tiller before detection by a cooled CCD camera (Retiga 2000R, Q-Imaging, Burnaby, Canada). For measurement of Cat^2+ transients in individual cells, coverslips with fluo-3 loaded cells were excited by the output of a 100 W mercury are lamp that passed through a 480 nm bandpass filter (30 nm bandwidth). Fluorescence emission was passed through a 515 nm longpass filter before capture by a cooled CCD camera (Retiga 2000R, Q-Imaging). Image acquisition was performed with QCapture Pro (Q-Imaging) and analysis was performed with ImageJ (U.S. National Institutes of Health Bethesda, Md. USA).
(§3) Fluo-3 Ca^2+ indicator measurements are reported as the fractional change in fluorescence intensity relative to baseline (ΔF/F0), which was determined as follows. Within a temporal sequence of fluorescence images, a region of interest (ROI) was drawn around each cell to be analyzed. The fluorescence signal from each cell was calculated as the pixel-averaged intensity within each ROI. […]

[9] = tested on: PC-3 cells; experiment: Absolute [Ca2+]i in individual cells, Fura-2AM; conditions: 20 μM, 24 hrs, control cells about 42.05 nM
Experimental: as §2
For measurement of [Ca^2+]i in individual cells, PC-3 cells were incubated on coverslips with 20 μM VN/124-1 or vehicle for 24 hrs. Cells loaded with fura-2 were placed in a perfusion chamber mounted on an inverted microscope (TE200; Nikon, Tokyo, Japan) equipped with a UV-transmitting objective (SuperFluor, 40×, N.A. 1.4, Nikon). […] Fluorescence emission was passed through a 515 nm longpass filter before capture by a cooled CCD camera (Retiga 2000R, Q-Imaging). […]
as §3

[10] = tested on: PC-3 cells; experiment: Co-administration of VN/124-1 and thapsigargin, MTT cell viability, combination index; conditions: 96 hrs, CI less than 1 synergistic
Experimental: All cell lines were obtained from American. Type Culture Collection (Rockville, Md.) and maintained in RPM 1640 media supplemented with 10% fetal bovine serum and 5% penicillin streptomycin solution. Cells were grown as a monolayer in a humidified incubator (5% CO2) at 37° C. To determine the effect of the various compounds on cell proliferation, cells were plated (2500 cells/well) in 96-well cell culture dishes (Corning, Inc. Corning, N.Y.). After a 24 hr attachment period, media was replaced with fresh media containing compounds (0.01 μM-100 μM) or vehicle (95% ethanol). The cells were then allowed to grow in the presence of the drugs for 96 hrs. After 96 hrs, relative cell viability was assessed using the MIT reagent (3-(4,5-dimethylthiazol-2-yl)-2,5-diphenyltetrazolium bromide) as is well-known in the art. Experiments were carried out 3 times with 6 replicates per dose per experiment (n=18). Results were plotted using the average of each dose over all three experiments and fitted with a best-fit sigmoidal dose response variable slope curve using GraphPad Prism 4.01 (GraphPad Software, Inc.). […] Combination index (CI) was calculated as is well known in the art, and CI values less than 1 are considered synergistic.

**Q.** With `C[C@]12CC[C@H](O)CC1=CC[C@@H]1[C@@H]2CC[C@]2(C)C(c3cccnc3)=CC[C@@H]12` [Abiraterone, 17-(3-pyridyl)androsta-5,16-dien-3β-ol, reference compound] as the compound, how does the GI50 [1] read?
**A.** 14.7 µM

**Q.** And the GI50 [2]?
**A.** 1.41 µM

**Q.** And the GI50 [3]?
**A.** 9.32 µM

**Q.** `C[C@]12CC[C@H](O)CC1=CCC1C2CC[C@]2(C)C(n3cncn3)=CCC12` (stereo partly shown) [VN/63-1] was tested. Which GI90 [1] did it give?
**A.** >100 µM

**Q.** What about the GI50 [1] of the same compound?
**A.** 11 µM

**Q.** And the GI90 [2]?
**A.** >100 µM

**Q.** And the GI50 [2]?
**A.** 1.05 µM

**Q.** And the GI50 [3]?
**A.** 2.91 µM

**Q.** And the GI90 [3]?
**A.** >100 µM

**Q.** With `C[C@]12CC[C@H](O)CC1=CCC1C2CC[C@]2(C)C(n3ccnc3)=CCC12` (stereo partly shown) [VN/85-1] as the compound, how does the GI90 [1] read?
**A.** 31.62 µM

**Q.** And the GI50 [1]?
**A.** 5.31 µM

**Q.** What about the GI90 [2] of the same compound?
**A.** 36.49 µM

**Q.** What about the GI50 [2] of the same compound?
**A.** 2.47 µM

**Q.** And the GI50 [3]?
**A.** 1.86 µM

**Q.** What about the GI90 [3] of the same compound?
**A.** 30.41 µM

**Q.** For `C[C@]12CC[C@H](O)CC1=CC[C@@H]1[C@@H]2CC[C@]2(C)C(n3cnc4ccccc43)=CC[C@@H]12` [VN/124-1], which GI90 [1] is on record?
**A.** 15.95 µM

**Q.** What about the GI50 [1] of the same compound?
**A.** 7.55 µM

**Q.** And the GI90 [2]?
**A.** 31.99 µM

**Q.** And the GI50 [2]?
**A.** 3.15 µM

**Q.** And the GI50 [3]?
**A.** 7.82 µM

**Q.** And the GI90 [3]?
**A.** 18.62 µM

**Q.** What about the “S100P calcium binding protein gene expression” value [4] of the same compound?
**A.** most highly up-regulated

**Q.** What about the “activating transcription factor 4 (ATF4) gene expression” value ([5]; microarray verified by qRT-PCR) of the same compound?
**A.** up-regulated

**Q.** And the “asparagines synthetase (ASKS) gene expression” value ([5]; microarray verified by qRT-PCR)?
**A.** up-regulated

**Q.** And the CHOP gene expression ([5]; qRT-PCR)?
**A.** strongly up-regulated

**Q.** And the “cyclin D1 mRNA levels” value ([5]; qRT-PCR)?
**A.** not affected

**Q.** What about the “cyclin E2 mRNA levels” value ([5]; qRT-PCR) of the same compound?
**A.** significantly reduced

**Q.** What about the CHOP protein level [6] of the same compound?
**A.** up-regulation

**Q.** And the “expression of gp78/BiP protein” value [6]?
**A.** significantly induced

**Q.** What about the “phosphorylation of eIF2α” value ([6]; 6 and 24 hrs) of the same compound?
**A.** induced the phosphorylation

**Q.** And the “cyclin D1 protein” value ([6]; 24 hrs)?
**A.** down-regulation

**Q.** What about the “amount of cells in G1/G0” value ([7]; 18 and 24 hrs, synchronized cells) of the same compound?
**A.** significant increase

**Q.** And the “exit from G1 phase of the cell cycle” value ([7]; cells synchronized by serum starvation)?
**A.** prevented the exit from G1 phase

**Q.** What about the “transient rise in [Ca2+]i, mean peak ΔF/F0” value ([8]; extracellular calcium removed) of the same compound?
**A.** 0.967

**Q.** What about the “transient rise in [Ca2+]i, mean peak ΔF/F0” value ([8]; presence of extracellular calcium) of the same compound?
**A.** 0.613

**Q.** What about the “transient rise in [Ca2+]i after depletion of ER calcium stores” value ([8]; pretreatment with SERCA inhibitor cyclopiazonic acid (CPA)) of the same compound?
**A.** completely abolished

**Q.** And the “absolute [Ca2+]i, mean” value [9]?
**A.** about 66.21 nM

**Q.** What about the “Combination index (CI)” value ([10]; 5 μM VN/124-1 plus 10 nM thapsigargin) of the same compound?
**A.** 0.40

**Q.** And the “Combination index (CI)” value ([10]; 10 μM VN/124-1 plus 10 nM thapsigargin)?
**A.** 0.58

**Q.** What about the “Combination index (CI)” value ([10]; 20 μM VN/124-1 plus 10 nM thapsigargin) of the same compound?
**A.** 0.77

**Q.** What does the source list for `C[C@]12CCC(=O)C=C1CCC1C2CC[C@]2(C)C(n3cnc4ccccc43)=CCC12` (stereo partly shown) [VN/125-1]?
**A.** GI90 [1]: 15.53 µM; GI90 [2]: 13.46 µM; GI90 [3]: 8.07 µM
